Legend:
Format in all cases: biochemical
[1] = target: T1, recombinant rabbit GSK-3β (Oryctolagus cuniculus, UniProt G1T8E2); assay: Glycogen Synthase Kinase-3 assay (PPI-2 phosphorylation); settings: for IC50: PPI-2 substrate, 33P-ATP, 90 minutes at 30° C.
T1 construct: purchased New England Biolabs
Experimental: Compounds were tested for the ability to inhibit recombinant rabbit GSK-3β using the following protocol. The test compound was added to a reaction mixture containing Protein phosphatase inhibitor-2 (PPI-2) (Calbiochem) (45 ng), rabbit GSK-3β (New England Biolabs) (0.75 units) and ^33P-ATP (1 μCi) in 50 mM Tris-HCl (pH 8.0), 10 mM MgCl2, 0.1% BSA, 1 mM DTT and 100 μM Sodium Vanadate. The mixture was reacted for 90 minutes at 30° C. to allow phosphorylation of the PPI-2 protein and then the protein in the reaction was precipitated using 10% TCA. The precipitated protein was collected on filter plates (MultiScreen-DV/Millipore), which were subsequently washed. Finally, the radioactivity was quantified using a TopCount Scintillation Counter (Packard). […] Staurosporine or Valproate, known inhibitors of GSK-3β, were used as a positive control for screening.

PKC isoform α = PKC isoform α (Homo sapiens, UniProt P17252); assay: Protein Kinase C histone-based assay, PKC α; settings: histone III substrate, 30 μM ATP; error approximately within ±30 percent; read-out: PKC Activity, Alpha (IC50, Histone Based Assay)
Experimental: (§1) Compounds were evaluated for PKC selectivity using histone III as the substrate. The PKC isoforms α, β-II or γ were added to a reaction mixture that contained 20 mM HEPES, (pH 7.4), 940 μM CaCl2, 10 mM MgCl2, 1 mM EGTA. 100 μg/mL phosphatidylserine, 20 μg/mL diacylglycerol, 30 μM ATP, 1 μCi (^33P)ATP and 200 μg/mL histone III. The reaction was incubated for 10 min at 30° C. Reactions were terminated by TCA precipitation and spotting on Whatman P81 filters. Filters were washed in 75 mM phosphoric acid and the radioactivity quantified by liquid scintillation counting.

PKC isoform β-II = PKC isoform β-II (Homo sapiens, UniProt P05771); assay: Protein Kinase C histone-based assay, PKC β-II; settings: histone III substrate, 30 μM ATP; error approximately within ±30 percent; read-out: PKC Activity, Beta II (IC50, Histone Based Assay)
Experimental: as §1

PKC isoform γ = PKC isoform γ (Homo sapiens, UniProt P05129); assay: Protein Kinase C histone-based assay, PKC γ; settings: histone III substrate, 30 μM ATP; error approximately within ±30 percent; read-out: PKC Activity, Gamma (IC50, Histone Based Assay)
Experimental: as §1

Chain of PKC isoform β-II (P05771 1-673 isoform P05771-2): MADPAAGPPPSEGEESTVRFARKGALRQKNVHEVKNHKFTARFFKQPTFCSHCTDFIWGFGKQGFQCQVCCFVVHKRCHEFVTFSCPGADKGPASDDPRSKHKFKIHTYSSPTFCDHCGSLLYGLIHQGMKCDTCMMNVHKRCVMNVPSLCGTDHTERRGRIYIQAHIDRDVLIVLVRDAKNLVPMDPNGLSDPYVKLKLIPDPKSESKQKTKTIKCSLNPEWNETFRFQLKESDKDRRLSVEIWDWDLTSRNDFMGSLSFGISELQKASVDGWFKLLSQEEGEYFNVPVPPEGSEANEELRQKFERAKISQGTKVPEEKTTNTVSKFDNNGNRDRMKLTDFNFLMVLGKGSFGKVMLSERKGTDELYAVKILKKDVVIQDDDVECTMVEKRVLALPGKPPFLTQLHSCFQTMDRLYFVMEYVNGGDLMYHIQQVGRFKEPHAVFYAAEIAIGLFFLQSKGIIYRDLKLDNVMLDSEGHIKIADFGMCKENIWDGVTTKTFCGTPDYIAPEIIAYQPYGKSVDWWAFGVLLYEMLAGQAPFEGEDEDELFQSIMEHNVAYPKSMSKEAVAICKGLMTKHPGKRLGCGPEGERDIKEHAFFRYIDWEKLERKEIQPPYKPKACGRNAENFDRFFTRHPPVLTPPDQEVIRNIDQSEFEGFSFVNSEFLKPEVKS
T1 sequence (G1T8E2 1-432): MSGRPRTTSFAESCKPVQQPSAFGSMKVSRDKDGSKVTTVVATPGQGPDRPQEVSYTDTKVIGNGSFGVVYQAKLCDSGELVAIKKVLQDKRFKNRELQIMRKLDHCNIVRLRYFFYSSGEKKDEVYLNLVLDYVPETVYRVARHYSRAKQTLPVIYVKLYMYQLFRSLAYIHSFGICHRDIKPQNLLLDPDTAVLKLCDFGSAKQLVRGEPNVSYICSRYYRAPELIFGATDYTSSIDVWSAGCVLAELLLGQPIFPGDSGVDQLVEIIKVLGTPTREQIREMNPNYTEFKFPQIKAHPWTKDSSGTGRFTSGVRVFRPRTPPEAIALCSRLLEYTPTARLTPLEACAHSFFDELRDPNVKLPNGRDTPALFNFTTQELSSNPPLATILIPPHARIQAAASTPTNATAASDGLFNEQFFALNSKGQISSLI

Structure (SMILES) | GSK-3β Assay Activity, percent at a single concentration ([1]; @ 1 μM) [% @ 1 μM] | IC50 [1] [nM] | IC50 (PKC isoform α) [nM] | IC50 (PKC isoform β-II) [nM] | IC50 (PKC isoform γ) [nM]
CN(C)CCCn1cc(C2=C(c3cn(-c4csc5ccccc45)c4ccccc34)C(=O)NC2=O)c2ccccc21 [Compound 5, 3-(1-benzo[b]thien-3-yl-1H-indol-3-yl)-4-[1-[3-(dimethylamino)propyl]-1H-indol-3-yl]-1H-pyrrole-2,5-dione] | 53 | – | – | – | –
Cn1cc(C2=C(c3cn(-c4cccnc4)c4ccccc34)C(=O)NC2=O)c2ccccc21 [Compound 8, 3-(1-methyl-1H-indol-3-yl)-4-[1-(3-pyridinyl)-1H-indol-3-yl]-1H-pyrrole-2,5-dione] | – | 100 | – | – | –
CN(C)CCCn1cc(C2=C(c3cn(-c4ccccc4)c4ccccc34)C(=O)NC2=O)c2ccccc21 [Compound 6, 3-[1-[3-(dimethylamino)propyl]-1H-indol-3-yl]-4-(1-phenyl-1H-indol-3-yl)-1H-pyrrole-2,5-dione] | – | – | 58 | 23 | –
O=C1NC(=O)C(c2cn(-c3cccnc3)c3ccccc23)=C1c1cn(CCn2ncnn2)c2ccccc12 [Compound 9, 3-[1-(3-pyridinyl)-1H-indol-3-yl]-4-[1-[2-(2H-tetrazol-2-yl)ethyl]-1H-indol-3-yl]-1H-pyrrole-2,5-dione] | – | 7 | 910 | 54 | 4950
O=C1NC(=O)C(c2cn(-c3cccnc3)c3ccccc23)=C1c1cn(CCCO)c2ccccc12 [Compound 4, 3-[1-(3-hydroxypropyl)-1H-indol-3-yl]-4-[1-(3-pyridinyl)-1H-indol-3-yl]-1H-pyrrole-2,5-dione] | – | 24 | – | – | –
O=C1NC(=O)C(c2cn(-c3cncnc3)c3ccccc23)=C1c1cn(-c2cccnc2)c2ccccc12 [Compound 11, 3-[1-(3-pyridinyl)-1H-indol-3-yl]-4-[1-(5-pyrimidinyl)-1H-indol-3-yl]-1H-pyrrole-2,5-dione] | – | 116 | 3040 | 60 | 1440
O=C1NC(=O)C(c2cn(-c3cccnc3)c3ccccc23)=C1c1cn(CCn2cnnn2)c2ccccc12 [Compound 10, 3-[1-(3-pyridinyl)-1H-indol-3-yl]-4-[1-[2-(1H-tetrazol-1-yl)ethyl]-1H-indol-3-yl]-1H-pyrrole-2,5-dione] | – | 17 | 1010 | 123 | 4570
Cn1cc(C2=C(c3cn(-c4cncnc4)c4ccccc34)C(=O)NC2=O)c2ccccc21 [Compound 7, 3-(1-methyl-1H-indol-3-yl)-4-[1-(5-pyrimidinyl)-1H-indol-3-yl]-1H-pyrrole-2,5-dione] | – | 30 | – | – | –
O=C1NC(=O)C(c2cn(-c3cnc4ccccc4c3)c3ccccc23)=C1c1cn(CCO)c2ccccc12 [Compound 3, 3-[1-(2-hydroxyethyl)-1H-indol-3-yl]-4-[1-(3-quinolinyl)-1H-indol-3-yl]-1H-pyrrole-2,5-dione] | – | 31 | 457 | 23 | 784
O=C1NC(=O)C(c2cn(-c3cncnc3)c3ccccc23)=C1c1cn(CCO)c2ccccc12 [Compound 2, 3-[1-(2-hydroxyethyl)-1H-indol-3-yl]-4-[1-(5-pyrimidinyl)-1H-indol-3-yl]-1H-pyrrole-2,5-dione] | – | 8 | 228 | 15 | 429
O=C1NC(=O)C(c2cn(-c3cccnc3)c3ccccc23)=C1c1cn(CCO)c2ccccc12 [Compound 1, 3-[1-(2-hydroxyethyl)-1H-indol-3-yl]-4-[1-(3-pyridinyl)-1H-indol-3-yl]-1H-pyrrole-2,5-dione] | – | 25 | 64 | 6 | 274

Source: US6987110B2, “Substituted pyrrolines as kinase inhibitors” (Janssen Pharmaceutica N.V., priority 2002, dated 2006)
